Drawing on patent publication US20140227333A1, “DRY ACTIVE OXYGEN TECHNOLOGY” (ECOLAB USA INC., priority 2013, published 2014), this text covers hydrogen peroxide concentration and PEI protonated for two compounds.

Read-outs that look alike come from different tables or passages of the source.

The nature of data set [1]: Titration of hydrogen peroxide concentration, initially and 24 hours later (stability of the active oxidant). The format is physicochemical. Conditions: titrated initially and 24 hours later. The protocol:
The dry-to-touch powder compositions generated in Example 2 were further analyzed for stability of the active oxidant. The compositions were titrated initially and 24 hours later, giving nearly the same resulting amount of hydrogen peroxide concentration in the untreated liquid composition (35%) and the dry-to-touch powder composition (31%).

The conditions of data set [2]: cited from earlier work.

As to `OO` [liquid hydrogen peroxide (35%), hydrogen peroxide], the hydrogen peroxide concentration in data set [1] was found to be 35%.

For polyethyleneimine [PEI], the PEI protonated entry in data set [2] (pH 2) was “about 73%”; in data set [2] (pH 4), “about 50%”; in data set [2] (pH 5) it was “about 33%”; in data set [2] (pH 8), “about 25%”; in data set [2] (pH 10), “about 4%”.
